From patent US20160022751A1, “NOVEL COMPOSITION FOR TREATING ALZHEIMER'S DISEASE AND IMPROVING COGNITIVE FUNCTION OF ALZHEIMER'S PATIENTS” (GANGNEUNG-WONJU NATIONAL UNIVERSITY INDUSTRY ACADEMY …, priority 2014, published 2016)

How the values were obtained:
[1] = tested on: ChAT; test: ChAT mRNA expression in N2a cells (RT-PCR); format: cell-based, mouse; conditions: single ginsenoside (FIG. 7A)
Text: (§1) The present inventor reported that ChAT overexpressing human neural stem cells restored cognition with an increase of ACh levels in rat model (Park et al., Exp. Neurol., 234: 521-526, 2012). This implies that the increase of the ChAT level in cholinergic neurons plays a critical role in cognition enhancement and thus the cholinergic gene locus “VAChT/ChAT” can be a putative target for therapeutic approaches on AD. Thus the present inventor prepared transfected Neuro-2a (N2a) cells that over-express the human ChAT and APP (designated as “N2a.hChAT” and “N2a.hAPPswe”, respectively, FIG. 6) and the N2a.hChAT and N2a.hAPPswe cells were treated with the faction groups 1 to 5 isolated in the Example 3 at a centration of 50 μg/ml. Neuro-2a mouse neuroblastoma cells (Korean Cell Line Bank, Korea) were grown in DMEM supplemented with 10% fetal bovine serum (FBS), 100 U/m penicillin, and 100 μg/ml streptomycin (Invitrogen, USA) under 5% CO2 at 37° C. in tissue culture flasks. For all experiments, cells were grown to greater than 90% confluency and subjected to no more than 20 cell passages. The medium was changed every 2-3 days. Subconfluent cells were harvested and seeded at a density of 5×10^5 cells or 5×10^6 cells in poly-L-lysine-coated 35 mm or 60 mm culture plates. To recover the cells that are not completely saturated for analysis, poly-L-lysine coated 35 mm or 60 mm culture was seeded at a concentration of 5×10^5 or 5×10^6 cells on the plates. The extent of expression of hChAT and APP in the N2a.hChAT and N2a.hAAPswe cells treated with the faction groups 1 to 5 was quantified with RT-PCR using primers described in the below Table 2. At this time, beta-actin was used as an internal control.
(§2) Specifically, total RNA extracts from N2a cells were prepared using the Trizol method (Invitrogen, USA) and cDNA was synthesized from RNA by reverse transcription of 1 μg of total RNA using a reverse transcription system (Improm-II, Promega, USA) and oligo dT primers in a total volume of 20 μL. PCR amplification was performed using the primers described in Table 2 (Bioneer, Korea). Quantitative real-time PCR reactions were run on a Rotor-Gene 6000 (Corbett Research, Australia) using SensiMix™ SYBR Hi-ROX Kit (Bioline, U.K.) in 20 μL reaction mixtures. Each real-time-PCR master mix contained 10 μL 2× enzyme master mix, 7.0 μL RNase free water, 1 μL of each primer (10 pM each), and 1 μL diluted template. The PCR was performed with an initial pre-incubation step for 15 min at 95° C., followed by 45 cycles of 95° C. for 15 s, annealing at 52° C. for 15 s, and extension at 72° C. for 10 s. Melting curve analysis was used to confirm formation of the expected PCR product, and products from all assays were additionally tested with 1.2% agarose gel electrophoresis to confirm the correct lengths. An inter-run calibrator was used, and a standard curve was created for each gene to obtain PCR efficiencies. Relative sample expression levels were calculated using Rotor-Gene 6000 Series Software 1.7, and were expressed relative to β-actin and corrected for between-run variability. Data for the experimental samples were expressed as a fold unit the internal control gene.
(§3) In order to examine whether five ginsenosides affect the expression of ChAT related to the synthesis of acetylcholine and VAChT controlling extracellular secretion of acetylcholine, the present inventor analyzed the expression level of ChAT and VAChT after treating the five ginsenosides to N2a […] cells, respectively.

[2] = tested on: acetylcholine; conditions: Benishin et al., Pharmacol., 42: 223-229, 1991; cited from earlier work
[3] = tested on: VAChT; test: VAChT mRNA expression in N2a cells (RT-PCR); format: cell-based, mouse; conditions: single ginsenoside (FIG. 7B)
Text: as §1, §2, §3

Row | SMILES | expression of ChAT mRNA [1] | release of acetylcholine (ACh) from hippocampal slices [2] | expression of VAChT mRNA [3]
1 | CC(C)=CCC[C@](C)(O[C@@H]1O[C@H](CO[C@@H]2O[C@H](CO)[C@@H](O)[C@H](O)[C@H]2O)[C@@H](O)[C@H](O)[C@H]1O)[C@H]1CC[C@]2(C)[C@@H]1[C@H](O)C[C@@H]1[C@@]3(C)CC[C@H](O[C@@H]4O[C@H](CO)[C@@H](O)[C@H](O)[C@H]4O[C@@H]4O[C@H](CO)[C@@H](O)[C@H](O)[C@H]4O)C(C)(C)[C@@H]3CC[C@]12C [ginsenoside Rb1] | no significant increase | facilitate the release of acetylcholine | no significant increase
2 | CC(C)=CCC[C@](C)(O[C@@H]1O[C@H](CO)[C@@H](O)[C@H](O)[C@H]1O)[C@H]1CC[C@]2(C)[C@@H]1[C@H](O)C[C@@H]1[C@@]3(C)CC[C@H](O)C(C)(C)[C@@H]3[C@@H](O[C@@H]3O[C@H](CO)[C@@H](O)[C@H](O)[C@H]3O)C[C@]12C [ginsenoside Rg1] | no significant increase |  | no significant increase
